Test results reported in ChEMBL document CHEMBL1147140, “Strongylophorine-26, an inhibitor of cancer cell Invasion: SAR revealed by synthesis of analogues” (J Nat Prod, 2007).
In brackets after ≈: the same amount, converted by molar mass. Activity calls are given as the source filed them. The rule behind the calls is not given here.

Tests used:
MDA-MB-231 [1] = assay: Cytotoxicity against human MDA-MB-231 cells; format: cell-based
MDA-MB-231 [2] = assay: Anti-invasive activity against human MDA-MB-231 cells at <= 0.3 ug/ml; format: functional, cell-based

Row | Compound | Activity (MDA-MB-231 [2]) | further results
1 | COC1=CC(=O)C=C(C[C@H]2[C@]3(C)CC[C@H]4C(C)(C)CCC[C@]4(C)[C@H]3CC[C@]2(C)O)C1=O (stereo in doubt; (+)-3) [listing 1 of 2 here] |  | IC50 (MDA-MB-231 [1]; mda-mb-231): 0.3 µg/mL (≈ 0.7 µM)
2 | COC1=CC(=O)C=C(C[C@H]2[C@]3(C)CC[C@H]4C(C)(C)CCC[C@]4(C)[C@H]3CC[C@]2(C)O)C1=O (stereo in doubt; (+)-3) [listing 2 of 2 here] | inactive | 
3 | COC1=CC(=O)C=C(C[C@H]2[C@]3(C)CC[C@H]4C(C)(C)CCC[C@]4(C)[C@H]3CC[C@]2(C)O)C1=O (stereo in doubt; (-)-3) [listing 1 of 2 here] | inactive | 
4 | COC1=CC(=O)C=C(C[C@H]2[C@]3(C)CC[C@H]4C(C)(C)CCC[C@]4(C)[C@H]3CC[C@]2(C)O)C1=O (stereo in doubt; (-)-3) [listing 2 of 2 here] |  | IC50 (MDA-MB-231 [1]; Homo sapiens, MDA-MB-231, read-out: IC50): 0.3 µg/mL (≈ 0.7 µM)
